In ChEMBL document CHEMBL2440076, “New triarylpyrazoles as broad-spectrum anticancer agents: design, synthesis, and biological evaluation” (Eur J Med Chem, 2013):

Tests used:
Assay type in all cases: functional
DU-145 [1] = assay: Growth inhibition of human DU145 cells assessed as cell growth at 5X10'-6 M after 48 hrs by sulforhodamine B assay; conditions: DU-145, 48 h, read-out: Activity
HL-60(TB) [2] = assay: Growth inhibition of human HL-60(TB) cells assessed as cell growth at 3X10'-5 M after 48 hrs by sulforhodamine B assay; conditions: HL-60, 48 h, read-out: Activity
ACHN = assay: Growth inhibition of human ACHN cells assessed as cell growth at 3X10'-6 M after 48 hrs by sulforhodamine B assay; conditions: read-out: Activity
A549 = assay: Growth inhibition of human A549/ATCC cells assessed as cell growth at 3X10'-9 M after 48 hrs by sulforhodamine B assay; conditions: A549, 48 h, read-out: Activity
MDA-MB-231 = assay: Growth inhibition of human MDA-MB-231 cells assessed as cell growth at 3X10'-9 M after 48 hrs by sulforhodamine B assay; conditions: MDA-MB-231, 48 h, read-out: Activity
CCRF-CEM = assay: Growth inhibition of human CCRF-CEM cells assessed as cell growth at 3X10'-9 M after 48 hrs by sulforhodamine B assay; conditions: read-out: Activity
HT-29 = assay: Growth inhibition of human HT-29 cells assessed as cell growth at 3X10'-8 M after 48 hrs by sulforhodamine B assay; conditions: HT-29, 48 h, read-out: Activity
PC-3 [3] = assay: Growth inhibition of human PC3 cells assessed as cell growth at 3X10'-9 M after 48 hrs by sulforhodamine B assay; conditions: PC-3, 48 h, read-out: Activity
HCT-15 = assay: Growth inhibition of human HCT15 cells assessed as cell growth at 3X10'-9 M after 48 hrs by sulforhodamine B assay; conditions: HCT-15, 48 h, read-out: Activity
UO-31 = assay: Growth inhibition of human UO31 cells assessed as cell growth at 3X10'-9 M after 48 hrs by sulforhodamine B assay; conditions: UO-31, 48 h, read-out: Activity
SK-MEL-5 = assay: Growth inhibition of human SK-MEL-5 cells assessed as cell growth at 3X10'-6 M after 48 hrs by sulforhodamine B assay; conditions: SK-MEL-5, 48 h, read-out: Activity
NCI-H226 [4] = assay: Growth inhibition of human NCI-H226 cells assessed as cell growth at 3X10'-8 M after 48 hrs by sulforhodamine B assay; conditions: NCI-H226, 48 h, read-out: Activity
K562 = assay: Growth inhibition of human K562 cells assessed as cell growth at 3X10'-5 M after 48 hrs by sulforhodamine B assay; conditions: K562, 48 h, read-out: Activity
SF-268 = assay: Growth inhibition of human SF268 cells assessed as cell growth at 3X10'-5 M after 48 hrs by sulforhodamine B assay; conditions: SF-268, 48 h, read-out: Activity
NCI-H226 [5] = assay: Growth inhibition of human NCI-H226 cells assessed as cell growth at 3X10'-6 M after 48 hrs by sulforhodamine B assay; conditions: NCI-H226, 48 h, read-out: Activity
HOP-62 = assay: Growth inhibition of human HOP62 cells assessed as cell growth at 3X10'-9 M after 48 hrs by sulforhodamine B assay; conditions: HOP-62, 48 h, read-out: Activity
PC-3 [6] = assay: Growth inhibition of human PC3 cells assessed as cell growth at 3X10'-6 M after 48 hrs by sulforhodamine B assay; conditions: PC-3, 48 h, read-out: Activity
[7] = Growth inhibition of human Hs 578T cells assessed as cell growth at 3X10'-7 M after 48 hrs by sulforhodamine B assay; conditions: read-out: Activity
NCI-H322M [8] = assay: Growth inhibition of human NCI-H322M cells assessed as cell growth at 3X10'-8 M after 48 hrs by sulforhodamine B assay; conditions: read-out: Activity
U-251 = assay: Growth inhibition of human U251 cells assessed as cell growth at 3X10'-8 M after 48 hrs by sulforhodamine B assay; conditions: U-251, 48 h, read-out: Activity
786-0 = assay: Growth inhibition of human 786-0 cells assessed as cell growth at 3X10'-8 M after 48 hrs by sulforhodamine B assay; conditions: 786-0, 48 h, read-out: Activity
NCI-H322M [9] = assay: Growth inhibition of human NCI-H322M cells assessed as cell growth at 3X10'-7 M after 48 hrs by sulforhodamine B assay; conditions: read-out: Activity
SK-MEL-28 = assay: Growth inhibition of human SK-MEL-28 cells assessed as cell growth at 3X10'-8 M after 48 hrs by sulforhodamine B assay; conditions: SK-MEL-28, 48 h, read-out: Activity
IGROV-1 = assay: Growth inhibition of human IGROV1 cells assessed as cell growth at 3X10'-9 M after 48 hrs by sulforhodamine B assay; conditions: IGROV-1, 48 h, read-out: Activity
HL-60(TB) [10] = assay: Growth inhibition of human HL-60(TB) cells assessed as cell growth at 3X10'-7 M after 48 hrs by sulforhodamine B assay; conditions: HL-60, 48 h, read-out: Activity
OVCAR-3 [11] = assay: Growth inhibition of human OVCAR3 cells assessed as cell growth at 3X10'-6 M after 48 hrs by sulforhodamine B assay; conditions: OVCAR-3, 48 h, read-out: Activity
HOP-92 = assay: Growth inhibition of human HOP92 cells assessed as cell growth at 3X10'-6 M after 48 hrs by sulforhodamine B assay; conditions: HOP-92, 48 h, read-out: Activity
NCI-H522 = assay: Growth inhibition of human NCI-H522 cells assessed as cell growth at 3X10'-6 M after 48 hrs by sulforhodamine B assay; conditions: NCI-H522, 48 h, read-out: Activity
MDA-MB-468 = assay: Growth inhibition of human MDA-MB-468 cells assessed as cell growth at 3X10'-6 M after 48 hrs by sulforhodamine B assay; conditions: MDA-MB-468, 48 h, read-out: Activity
MOLT-4 = assay: Growth inhibition of human MOLT4 cells assessed as cell growth at 3X10'-6 M after 48 hrs by sulforhodamine B assay; conditions: MOLT-4, 48 h, read-out: Activity
DU-145 [12] = assay: Growth inhibition of human DU145 cells assessed as cell growth at 3X10'-7 M after 48 hrs by sulforhodamine B assay; conditions: DU-145, 48 h, read-out: Activity
SK-MEL-2 = assay: Growth inhibition of human SK-MEL-2 cells assessed as cell growth at 3X10'-9 M after 48 hrs by sulforhodamine B assay; conditions: SK-MEL-2, 48 h, read-out: Activity
OVCAR-3 [13] = assay: Growth inhibition of human OVCAR3 cells assessed as cell growth at 3X10'-8 M after 48 hrs by sulforhodamine B assay; conditions: OVCAR-3, 48 h, read-out: Activity
MDA-MB-435 = assay: Growth inhibition of human MDA-MB-435 cells assessed as cell growth at 3X10'-9 M after 48 hrs by sulforhodamine B assay; conditions: MDA-MB-435, 48 h, read-out: Activity
NCI-H460 = assay: Growth inhibition of human NCI-H460 cells assessed as cell growth at 3X10'-9 M after 48 hrs by sulforhodamine B assay; conditions: NCI-H460, 48 h, read-out: Activity
MCF7 = assay: Growth inhibition of human MCF7 cells assessed as cell growth at 3X10'-9 M after 48 hrs by sulforhodamine B assay; conditions: MCF7, 48 h, read-out: Activity

In the case of `COc1cc(-c2nn(-c3cccc(NC(=O)Nc4ccc(Cl)c(Cl)c4)c3)cc2-c2ccncc2)ccc1Cl`, the growth at 5 µM (DU-145 [1]) is reported as 7%.

With `COc1cc(-c2nn(-c3cccc(NC(=O)c4cccc(C(F)(F)F)c4)c3)cc2-c2ccncc2)ccc1Cl` the growth at 5 µM (DU-145 [1]) was 15%.

In the case of `O=C(Nc1cccc(-n2cc(-c3ccncc3)c(-c3ccc(Cl)c(O)c3)n2)c1)Nc1ccc(Cl)c(C(F)(F)F)c1`, the growth at 30 µM (HL-60(TB) [2]) is reported as 6%, the growth at 3 µM (ACHN) is reported as 8% and the growth at 0.003 µM (A549) is reported as 98%. For the same compound, the growth at 0.003 µM (MDA-MB-231) was 92%, the growth at 0.003 µM (CCRF-CEM) was 98% and the growth at 0.03 µM (HT-29) was 107%. The growth at 0.003 µM (PC-3 [3]) was 93%, the growth at 0.003 µM (HCT-15) was 98% and the growth at 0.003 µM (UO-31) was 94%. For the same compound, the growth at 3 µM (SK-MEL-5) was -81%, the growth at 0.03 µM (NCI-H226 [4]) was 86% and the growth at 30 µM (K562) was 1%. For the same compound, the growth at 30 µM (SF-268) was -20%, the growth at 3 µM (NCI-H226 [5]) was 30% and the growth at 0.003 µM (HOP-62) was 97%. For the same compound, the growth at 3 µM (PC-3 [6]) was -15%, the growth at 0.3 µM [7] was 76% and the growth at 0.03 µM (NCI-H322M [8]) was 105%. It also gave a growth at 0.03 µM (U-251) of 96%, a growth at 0.03 µM (786-0) of 102% and a growth at 0.3 µM (NCI-H322M [9]) of 95%. For the same compound, the growth at 0.03 µM (SK-MEL-28) was 97%, the growth at 0.003 µM (IGROV-1) was 98% and the growth at 0.3 µM (HL-60(TB) [10]) was 138%. It also gave a growth at 3 µM (OVCAR-3 [11]) of -24%, a growth at 3 µM (HOP-92) of -30% and a growth at 3 µM (NCI-H522) of -11%. For the same compound, the growth at 3 µM (MDA-MB-468) was -27%, the growth at 3 µM (MOLT-4) was -4% and the growth at 0.3 µM (DU-145 [12]) was 97%. For the same compound, the growth at 0.003 µM (SK-MEL-2) was 113%, the growth at 0.03 µM (OVCAR-3 [13]) was 113% and the growth at 0.003 µM (MDA-MB-435) was 97%. For the same compound, the growth at 0.003 µM (NCI-H460) was 103% and the growth at 0.003 µM (MCF7) was 93%.

In the case of `O=C(Nc1cccc(-n2cc(-c3ccncc3)c(-c3ccc(Cl)c(O)c3)n2)c1)Nc1cccc(C(F)(F)F)c1`, the growth at 30 µM (HL-60(TB) [2]) is reported as 1%, the growth at 3 µM (ACHN) is reported as 21% and the growth at 0.003 µM (A549) is reported as 97%. It also gave a growth at 0.003 µM (MDA-MB-231) of 103%, a growth at 0.003 µM (CCRF-CEM) of 97% and a growth at 0.03 µM (HT-29) of 99%. For the same compound, the growth at 0.003 µM (PC-3 [3]) was 95%, the growth at 0.003 µM (HCT-15) was 95% and the growth at 0.003 µM (UO-31) was 89%. The growth at 3 µM (SK-MEL-5) was 17%, the growth at 0.03 µM (NCI-H226 [4]) was 100% and the growth at 30 µM (K562) was 6%. The growth at 30 µM (SF-268) was -17%, the growth at 3 µM (NCI-H226 [5]) was 66% and the growth at 0.003 µM (HOP-62) was 97%. For the same compound, the growth at 3 µM (PC-3 [6]) was 13%, the growth at 0.3 µM [7] was 89% and the growth at 0.03 µM (NCI-H322M [8]) was 95%. For the same compound, the growth at 0.03 µM (U-251) was 100%, the growth at 0.03 µM (786-0) was 96% and the growth at 0.3 µM (NCI-H322M [9]) was 98%. The growth at 0.03 µM (SK-MEL-28) was 100%, the growth at 0.003 µM (IGROV-1) was 98% and the growth at 3 µM (OVCAR-3 [11]) was 10%. It also gave a growth at 3 µM (HOP-92) of -13%, a growth at 3 µM (NCI-H522) of 25% and a growth at 3 µM (MDA-MB-468) of 17%. For the same compound, the growth at 3 µM (MOLT-4) was 36%, the growth at 0.3 µM (DU-145 [12]) was 97% and the growth at 0.003 µM (SK-MEL-2) was 93%. The growth at 0.03 µM (OVCAR-3 [13]) was 93%, the growth at 0.003 µM (MDA-MB-435) was 102% and the growth at 0.003 µM (NCI-H460) was 99%. It also gave a growth at 0.003 µM (MCF7) of 91%.
